In publication PMC9516332 (Frontiers in Oncology, 2022):

Key:
Assay in all cases: Kinase panel profiling at 1 µmol/L (MSA or IMAP), percentage inhibition
Assay type in all cases: biochemical
[1] = target: panel of 255 wild-type kinases (Homo sapiens, UniProt O14578); conditions: kinase CRIK; 1 µmol/L single concentration; read-out: %-inhibition at 1 µmol/L, CRIK
[2] = target: T1, panel of 255 wild-type kinases (Homo sapiens, UniProt O15111); conditions: kinase IKKα; 1 µmol/L single concentration; read-out: %-inhibition at 1 µmol/L, IKKα
T1 sequence (O15111 1-745): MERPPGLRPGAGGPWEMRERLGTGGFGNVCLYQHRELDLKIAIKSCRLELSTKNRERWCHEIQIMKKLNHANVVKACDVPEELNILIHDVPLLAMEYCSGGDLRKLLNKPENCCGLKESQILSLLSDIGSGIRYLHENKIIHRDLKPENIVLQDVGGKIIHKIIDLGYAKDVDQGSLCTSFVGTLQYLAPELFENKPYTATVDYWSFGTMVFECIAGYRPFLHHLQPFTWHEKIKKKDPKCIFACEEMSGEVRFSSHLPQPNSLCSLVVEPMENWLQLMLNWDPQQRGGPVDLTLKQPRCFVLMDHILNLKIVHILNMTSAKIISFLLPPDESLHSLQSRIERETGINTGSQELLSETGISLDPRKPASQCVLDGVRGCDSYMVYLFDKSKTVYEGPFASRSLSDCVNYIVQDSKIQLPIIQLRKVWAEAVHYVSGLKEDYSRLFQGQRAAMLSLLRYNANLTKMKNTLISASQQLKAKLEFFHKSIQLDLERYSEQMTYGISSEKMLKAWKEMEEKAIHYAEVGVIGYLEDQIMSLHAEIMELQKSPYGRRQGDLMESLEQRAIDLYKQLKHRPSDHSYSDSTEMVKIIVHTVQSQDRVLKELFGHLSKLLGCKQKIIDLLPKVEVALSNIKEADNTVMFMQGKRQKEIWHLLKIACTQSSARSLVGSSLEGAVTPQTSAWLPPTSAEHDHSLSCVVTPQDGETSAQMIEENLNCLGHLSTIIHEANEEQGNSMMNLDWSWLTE

[3] = target: panel of 255 wild-type kinases (Homo sapiens, UniProt O75582); conditions: MSK1; 1 µmol/L single concentration; read-out: %-inhibition, MSK1
[4] = target: panel of 255 wild-type kinases (Homo sapiens, UniProt P07948); conditions: kinase LYNa; 1 µmol/L single concentration; read-out: %-inhibition at 1 µmol/L, LYNa
[5] = target: panel of 255 wild-type kinases (Homo sapiens, UniProt P16591); conditions: kinase FER; 1 µmol/L single concentration; read-out: %-inhibition at 1 µmol/L, FER
[6] = target: panel of 255 wild-type kinases (Homo sapiens, UniProt P17252); conditions: kinase PKCα; 1 µmol/L single concentration; read-out: %-inhibition at 1 µmol/L, PKCα
[7] = target: panel of 255 wild-type kinases (Homo sapiens, UniProt P22612); conditions: kinase PKACγ; 1 µmol/L single concentration; read-out: %-inhibition at 1 µmol/L, PKACγ
[8] = target: panel of 255 wild-type kinases (Homo sapiens, UniProt P28482); conditions: kinase Erk2; 1 µmol/L single concentration; read-out: %-inhibition at 1 µmol/L, Erk2
[9] = target: panel of 255 wild-type kinases (Homo sapiens, UniProt P49674); conditions: kinase CK1ε; 1 µmol/L single concentration; read-out: %-inhibition at 1 µmol/L, CK1ε
[10] = target: T2, panel of 255 wild-type kinases (Homo sapiens, UniProt Q05513); conditions: kinase PKCζ; 1 µmol/L single concentration; read-out: %-inhibition at 1 µmol/L, PKCζ
T2 sequence (Q05513 1-592): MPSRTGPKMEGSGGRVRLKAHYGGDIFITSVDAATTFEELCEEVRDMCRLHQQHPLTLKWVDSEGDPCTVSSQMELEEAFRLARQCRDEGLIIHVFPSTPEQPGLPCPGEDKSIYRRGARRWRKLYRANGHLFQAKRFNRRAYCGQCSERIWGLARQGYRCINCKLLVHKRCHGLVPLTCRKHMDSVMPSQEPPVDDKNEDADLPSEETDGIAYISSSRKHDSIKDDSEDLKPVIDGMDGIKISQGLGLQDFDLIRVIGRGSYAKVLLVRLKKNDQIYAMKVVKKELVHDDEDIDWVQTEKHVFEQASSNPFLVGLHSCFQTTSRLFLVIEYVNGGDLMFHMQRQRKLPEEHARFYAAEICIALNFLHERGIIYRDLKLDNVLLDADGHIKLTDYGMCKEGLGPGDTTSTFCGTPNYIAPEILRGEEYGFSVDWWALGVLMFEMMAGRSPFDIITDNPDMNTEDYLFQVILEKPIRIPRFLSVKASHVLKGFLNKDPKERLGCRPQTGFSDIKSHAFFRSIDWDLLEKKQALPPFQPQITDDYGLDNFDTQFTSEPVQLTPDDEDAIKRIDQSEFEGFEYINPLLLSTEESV

[11] = target: T3, panel of 255 wild-type kinases (Homo sapiens, UniProt Q96KB5); conditions: kinase PBK; 1 µmol/L single concentration; read-out: %-inhibition at 1 µmol/L, PBK
T3 sequence (Q96KB5 1-322): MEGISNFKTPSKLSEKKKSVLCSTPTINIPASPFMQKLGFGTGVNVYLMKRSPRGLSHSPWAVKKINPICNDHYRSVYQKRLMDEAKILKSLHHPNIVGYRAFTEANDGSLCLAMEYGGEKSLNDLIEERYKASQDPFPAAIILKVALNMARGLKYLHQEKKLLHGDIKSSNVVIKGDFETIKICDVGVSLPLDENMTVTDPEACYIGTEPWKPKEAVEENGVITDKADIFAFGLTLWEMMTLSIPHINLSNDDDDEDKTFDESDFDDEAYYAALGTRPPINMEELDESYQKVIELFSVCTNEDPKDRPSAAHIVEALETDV

[12] = target: panel of 255 wild-type kinases (Homo sapiens, UniProt Q9Y6E0); conditions: MST3; 1 µmol/L single concentration; read-out: %-inhibition, MST3

SMILES	inhibition at 1 µM [1] [%]	inhibition at 1 µM [2] [%]	inhibition at 1 µM [3] [%]	inhibition at 1 µM [4] [%]	inhibition at 1 µM [5] [%]	inhibition at 1 µM [6] [%]	inhibition at 1 µM [7] [%]	inhibition at 1 µM [8] [%]	inhibition at 1 µM [9] [%]	inhibition at 1 µM [10] [%]	inhibition at 1 µM [11] [%]	inhibition at 1 µM [12] [%]
CO[C@]1(C(=O)N[C@@H](C)c2ccc(-n3cc(F)cn3)nc2)CC[C@H](c2nc(C)cc(Nc3cc(C)[nH]n3)n2)CC1 [pralsetinib]	-0.417	-1.52	10	92	75	3	10	0.23	-3	-0.213	-1.86	8
COc1cc2ncnc(Nc3ccc(F)c(Cl)c3)c2cc1NC(=O)/C=C/CN1CCCCC1 [dacomitinib]	32	10	1.13	79	6.35	-4.53	12	-1.48	6.55	24	-3.28	27
CCn1c(=O)c(-c2cc(NC(=O)Nc3ccccc3)c(F)cc2Br)cc2cnc(NC)cc21 [ripretinib]	20	1.08	14	85	32	-1.85	2.69	-2.43	1.8	15	-4	-4
Cc1nc(NC(=O)N2CCC[C@H]2C(N)=O)sc1-c1ccnc(C(C)(C)C(F)(F)F)c1 [alpelisib]	-5.56	6	-8	1.8	-1.86	1.21	-7.38	-0.753	-2.48	14	-1.24	-4.63
C=CC(=O)N1CCC([C@@H]2CCNc3c(C(N)=O)c(-c4ccc(Oc5ccccc5)cc4)nn32)CC1 [zanubrutinib]	-2.4	-10	0.565	–	0.0146	-2.63	-4.62	-5	4.32	0.367	-4	0.0873
O=C(Nc1cnn2ccc(N3CCC[C@@H]3c3cc(F)ccc3F)nc12)N1CC[C@H](O)C1 [larotrectinib]	-4.22	2.45	-0.0628	5	3.72	-3	-4	-6	-2.19	0.558	-5.44	1.65
Cc1cc(Nc2ncnc3ccc(NC4=NC(C)(C)CO4)cc23)ccc1Oc1ccn2ncnc2c1 [tucatinib]	-2.49	-1.68	2.56	7	1.35	5	-0.548	-0.547	0.505	-1.11	1.21	10
FC(F)(F)c1ccc(CNc2ccc(Cc3c[nH]c4ncc(Cl)cc34)cn2)cn1 [pexidartinib]	-1.09	-0.379	10	24	21	-8	3	-3.53	5.38	13	-1.68	5
Cn1cnc2c(F)c(Nc3ccc(Br)cc3F)c(C(=O)NOCCO)cc21 [binimetinib]	-3.44	9	10	3.76	4.71	-0.116	-3	0.0301	-3.48	10	0.203	1.89
CN1CCN(c2ccc(C(=O)Nc3n[nH]c4ccc(Cc5cc(F)cc(F)c5)cc34)c(NC3CCOCC3)c2)CC1 [entrectinib]	-9	8	0.468	74	99	20	-4.58	-0.572	10	17	-5.43	7.48
C[C@H]1Oc2cc(cnc2N)-c2c(nn(C)c2C#N)CN(C)C(=O)c2ccc(F)cc21 [lorlatinib]	-1.22	12	-8	21	–	12	-6	0.392	0.583	17	1.39	-1.26
CCc1nc(C(N)=O)c(Nc2ccc(N3CCC(N4CCN(C)CC4)CC3)c(OC)c2)nc1NC1CCOCC1 [gilteritinib]	75	2.16	25	88	99	–	5.41	-1.15	5.55	21	-2.54	5
